Measurements from patent publication US12544335B2, “Treatment approach by targeted delivery of bioactive molecules” (priority 2018, dated 2026).

Tests used:
[1] = In-vitro doxorubicin binding to apatite particles; conditions: 10 μg Doxorubicin in 1 mL PBS, 48 h
Protocol: Methods: 5 mg, 10 mg and 20 mg apatite particles were suspended in 1 mL PBS containing 10 μg Doxorubicin and homogenously distributed in the suspension using sonication for 5 min. The specimens were rotated gently on a rotational shaker for 48 h (speed: 50 rpm). After 48 h, the specimens were centrifuged to obtain a pellet of the apatite particles and the supernatant was collected. The apatite particles were then resuspended in 1 mL of PBS, thoroughly pipetted to wash the unbound drug. At this point, the particles were centrifuged again and the supernatant was collected. The washing was repeated once again using the same protocol and the supernatant from the original time and 2 supernatants from the washing steps were measured for fluorescence on a spectro fluorimeter (excitation: 485 nm and emission: 580 nm). Bound doxorubicin to the apatite particles was also detected using fluorescence microscopy. Unbound free drug was used as a control.

[2] = In-vivo doxorubicin binding to nano apatite particles in muscle pouch, fluorescence microscopy; design: species or system rats
Protocol: Methods: 25 mg of nano sized apatite particles (size <200 nm) were implanted in the abdominal muscle pouch of rats. Animals were injected with 5 mg/kg doxorubicin re-suspended in PBS 2-weeks post implantation and the animals were sacrificed 1 day later. The specimens were harvested from the implanted muscle pouch and as a positive control, the site of doxorubicin systemic injection (skin under the neck) was also taken for histology. The samples were embedded in paraffin and cut to a thickness of 5 μm. The samples were then analyzed on a fluorescent microscope (excitation: 485 nm and emission: 580 nm).

[3] = In-vitro doxorubicin release from CaS/HA pellets; format: physicochemical
Protocol: Methods: Pellets of CaS/HA biomaterial were made by mixing 10 μg Doxorubicin/pellet. Each pellet containing 10 μg Doxorubicin was immersed in 1 mL PBS at two different pH (5 and 7.4). At each time point, old PBS was frozen until further analysis and the tube refilled with 1 mL fresh PBS. The experiment was conducted for a period of 4-weeks. Supernatants were analyzed on a spectro fluorimeter (excitation: 485 nm and emission: 580 nm).

S. aureus = experiment: Example 18: zone of inhibition of materials harvested from rat muscle pouch; format: cell-based; conditions: Cerament G / Cerament V, 2 weeks implanted, no systemic antibiotic
From the text: Small pellets of pristine hydroxyapatite (HA) of nano or micro size (wherein the micro-HA particles are about 10 μm, wherein the nano-HA particles are less than 200 nm and a majority of the nano-HA particles about 50 nm) were implanted in the abdominal muscle pouch of rats (Group 1). In another set of animals, pellets of calcium sulphate and micro-sized HA (Cerament) containing gentamycin (Cerament G) or vancomycin (Cerament V) were implanted in the muscle pouch of rats (Group 2).
[…] Tibial cortical bone samples were also collected as positive control and muscle tissue from the abdomen was collected as a negative control.
In group 2, no antibiotics were administered systemically, and the implants only contained locally added antibiotics at the time of administration.
All samples were snap frozen in liquid nitrogen and pulverized using a mortar and pestle. Pulverized specimens were then placed in a silicon mold, casted as a pellet and placed in a bacterial culture plate containing S. aureus, a common pathogen found in bone and joint infections.

[4] = Accretion and long-term availability of 14C-ZA in CaS/HA in femoral neck canal; format: in vivo, osteoporotic rats; conditions: systemic dose 0.1 mg/kg 2 weeks post implantation
Protocol: Methods: The CaS/HA biomaterial was implanted in the femoral neck canal of 6 osteoporotic rats. The animals (n=3) then received a systemic (sub-cutaneous) dose of ^14C-ZA (0.1 mg/kg, specific radioactivity: 7.1 MBq/mL) 2-weeks post implantation. The animals were sacrificed 6 months post implantation (5 months and 2 weeks post injection). Results: The uptake of ^14C-ZA in the animals that were given a systemic dose of ^14C-ZA was verified using scintillation counting. Results are illustrated in FIG. 6.

[5] = In-vitro release of isoniazid from CaS/HA pellets in PBS; format: physicochemical; conditions: day 1, PBS
Protocol: Method: Isoniazid was mixed to CaS/HA biomaterial and equal volume pellets were created. Each pellet was then placed in a 1.5 mL tube and filled with 1 mL phosphate buffered saline (PBS). At each time point, the old PBS was removed and frozen until the day of analysis. The tube was refilled with fresh PBS (1 mL). All samples were analyzed spectrophotometrically and the concentration of the released antibiotic was calculated from a standard curve of isoniazid made in PBS.

[6] = Tetracycline uptake in CaS/HA pellet in muscle pouch, fluorescence microscopy; conditions: 1 day later
Protocol: Methods: A pellet of CaS/HA biomaterial (5 mm diameter×2 mm height) was placed in an abdominal muscle pouch of rats. […] 1-day later, the animals were sacrificed and the pellet of CaS/HA as well as surrounding muscle was harvested, fixed in formalin (4%) and embedded in paraffin. The tissue was then cut using a microtome to a thickness of 5 μm. The sections were de-paraffinized using xylene, rehydrated using decreasing ethanol gradient and cleared in water. Finally, the sections were analyzed on a fluorescence microscope (Zeiss, Japan Filter: FITC, Gain: 0, Exposure: 150 ms).

S. aureus ATCC 25923 = experiment: In-vivo biomodulation of HA pellets by systemic TET, disk diffusion assay; format: cell-based; conditions: TET 25 mg/rat i.p. for 3 days, 24 h after 3rd injection
Protocol: METHODS: (1) In-vitro binding experiment: Nano-HA powder of <200 nm particle size, with a majority of the particles being in size of about 50 nm (100 mg; Fluidnova) was measured in 2 mL microcentrifuge tubes in triplicates and 1 mL of TET solution (4 μg/mL) was added. After vortex mixing, tubes were kept on a rotator at 180 RPM for 1, 6, and 12 h. At desired time points, the tubes were removed and centrifuged at 14000 RPM for 2 min. The supernatant was discarded and sediments were then “washed” 4 times by adding 1 mL of saline (NaCl 0.9%) followed by vortex mixing and centrifuging at 14000 RPM for 2 min. After 4 washing-cycles, supernatants were discarded and 60 μL of hyaluronic acid (HAD, 1 mg/mL) was added to the sediments and mixed. Pastes were then transferred to an elastic mold (Ø=4.7 mm) and placed at −20° C. for an hour to freeze nano-HA paste into pellet. Frozen pellets were removed from the molds and brought to room temperature. […] After overnight incubation at 37° C., the diameter of the zone of inhibition (ZOI) around the pellets were measured.
(2) In-vivo biomodulation: Pellets of nano-/micro-HA were prepared by mixing 100 mg of nano-/micro-HA (Fluidnova, wherein the micro-HA particles are about 10 μm, and wherein the nano-HA particles are less than 200 nm and a majority of the nano-HA particles about 50 nm) with 60 and 80 μL of HAD, (1 mg/mL) respectively. […]

[7] = Long term elution of gentamycin from HA/Sulphate carrier; format: physicochemical
[8] = Apatite particle size dependence of 14C-ZA uptake in muscle pouch; format: in vivo, rats; conditions: 25 mg particles, 0.1 mg/kg ZA 2 weeks post implantation, 1 day post injection
Protocol: Method: We used 25 mg of micro sized pure apatite particles (size: 10 μm) and 25 mg of nano sized apatite particles (size: <200 nm) and placed them bilaterally in the abdominal muscle pouch of rats. Each animal then received a systemic dose of ^14C-ZA 2-weeks post implantation (Injection dose: 0.1 mg/kg ZA, drug/rat: 40 μg, specific radioactivity: 7.1 MBq/mL, ZA concentration: 1 mg/mL). The rats were sacrificed 1-day post injection and the radioactivity in micro and nano apatite particles was measured using scintillation counting.

[9] = Re-loading of apatite particles by repeated 14C-ZA injection; format: in vivo, rats; conditions: injections day 14 and day 27, average
Protocol: Methods: We used 25 mg of micro sized pure apatite particles (size: 10 μm) and 25 mg of nano sized apatite particles (size: <200 nm) and placed them bilaterally in the abdominal muscle pouch of rats. Two different time points were used. At time point 1 (day 14), all animals received the same amount of the radioactive ^14C-ZA. […] All animals were sacrificed a day later and the uptake of the drug measured in the apatite particles of two different sizes using scintillation counting.

[10] = Uptake of systemic 14C-ZA in CaS/HA pellet in abdominal muscle pouch; format: in vivo, rats
Protocol: 2-weeks after surgery, the animals were injected with ^14C labelled ZA (0.1 mg/kg, specific radioactivity: 7.1 MBq/mL) via the systemic route (sub-cutaneous) and the radioactivity was measured in 1) the CaS/HA pellet placed in the muscle and 2) surrounding muscle 24-h later.

COc1cccc2c1C(=O)c1c(O)c3c(c(O)c1C2=O)C[C@@](O)(C(=O)CO)C[C@@H]3O[C@H]1C[C@H](N)[C@H](O)[C@H](C)O1 [doxorubicin]
drug bound to apatite particles ([1]; 5 mg apatite particles): approximately 10%
drug bound to apatite particles ([1]; 10 mg apatite particles): 30%
drug bound to apatite particles ([1]; 20 mg apatite particles): approximately 75%
fluorescence at the site of injection ([2]; 5 mg/kg, 1 day after injection, positive control site): Strong fluorescent staining
fluorescence in muscle 1 cm distal from the implant ([2]; 5 mg/kg, 1 day later): did not show any fluorescence
fluorescence in apatite particles and area immediately around ([2]; 25 mg nano apatite, 5 mg/kg 2 weeks post implantation, 1 day later): relatively weak but positive signal
release at later time points ([3]; after day 3, up to 4 weeks): No further release
burst release of the drug from CaS/HA ([3]; day 1 and 3, PBS pH 5 and 7.4, 10 μg/pellet): 20-35%
release in low pH group compared with pH 7.4 ([3]; pH 5 vs 7.4): slightly higher release

CN[C@H](CC(C)C)C(=O)N[C@H]1C(=O)N[C@@H](CC(N)=O)C(=O)N[C@H]2C(=O)N[C@H]3C(=O)N[C@H](C(=O)N[C@H](C(=O)O)c4cc(O)cc(O)c4-c4cc3ccc4O)[C@H](O)c3ccc(c(Cl)c3)Oc3cc2cc(c3O[C@@H]2O[C@H](CO)[C@@H](O)[C@H](O)[C@H]2O[C@H]2C[C@](C)(N)[C@H](O)[C@H](C)O2)Oc2ccc(cc2Cl)[C@H]1O [Vancomycin]
inhibition of bacterial growth by CaS/HA with locally added antibiotic (S. aureus): could not inhibit bacterial growth

O=P(O)(O)C(O)(Cn1ccnc1)P(=O)(O)O [ZA, Zoledronic Acid]
time the drug stays in the apatite material ([4]; listed as zoledronic acid): 6 months

NNC(=O)c1ccncc1 [Isoniazid]
antibiotic released from CaS/HA [5]: approximately 60%

CN(C)[C@@H]1C(O)=C(C(N)=O)C(=O)[C@@]2(O)C(O)=C3C(=O)c4c(O)cccc4[C@@](C)(O)[C@H]3C[C@@H]12 [tetracycline]
uptake of tetracycline in CaS/HA biomaterial ([6]; 25 mg/kg sub-cutaneous 2 weeks after surgery): clear uptake
uptake of tetracycline in surrounding muscle ([6]; 25 mg/kg sub-cutaneous): no uptake
ZOI of kidney samples (S. aureus ATCC 25923): 14-17 mm
ZOI of liver samples (S. aureus ATCC 25923): 10-12 mm

Gentamycin
release of gentamycin from biphasic HA/Sulphate carrier ([7]; at one month): complete release
time by which the Apatite/Sulphate material releases gentamycin ([7]; trend line, elution over 2 months): ≤ 4 weeks
inhibition of bacterial growth by CaS/HA with locally added antibiotic (S. aureus): could not inhibit bacterial growth

O=P(O)(O)C(O)(Cn1ccnc1)P(=O)(O)O [^14C-ZA]
uptake of 14C-ZA, micro (10 μm) vs nano (<200 nm) apatite particles [8]: higher in micro-apatite particles compared to nano-apatite particles in 4 out of 5 specimens
time the drug stays in the apatite material [4]: at least 6 months
increase of counts of 14C-ZA after 2 injections compared to one injection ([9]; micro-particles (10 μm)): 72%
higher counts of 14C-ZA after 2 injections compared to one injection ([9]; nano-apatite particles (<200 nm)): 77%
uptake of 14C-ZA in CaS/HA biomaterial ([10]; 0.1 mg/kg sub-cutaneous 2 weeks after surgery, measured 24 h later): obvious
radioactivity in muscle surrounding the implant ([10]; 0.1 mg/kg sub-cutaneous, 24 h later): very low radioactive counts
